According to patent publication US20240343704A1, “HALO-SUBSTITUTED AMINO PYRIDINE COMPOUNDS AS INHIBITORS OF THE HAEMATOPOIETIC PROGENITOR KINASE 1 (HPK1)” (priority 2021, published 2024):

These molecules were tested against T1, Recombinant (1-346) HPK1 (h) (Homo sapiens, UniProt Q92918) (assay: HPK1 Human STE Kinase Enzymatic Radiometric Assay). Conditions: read-out: HPK1 IC50 nM Range*.
T1 construct: Recombinant (1-346) HPK1 (h) is incubated with 8 mM MOPS pH 7.0
T1 sequence (Q92918 1-346): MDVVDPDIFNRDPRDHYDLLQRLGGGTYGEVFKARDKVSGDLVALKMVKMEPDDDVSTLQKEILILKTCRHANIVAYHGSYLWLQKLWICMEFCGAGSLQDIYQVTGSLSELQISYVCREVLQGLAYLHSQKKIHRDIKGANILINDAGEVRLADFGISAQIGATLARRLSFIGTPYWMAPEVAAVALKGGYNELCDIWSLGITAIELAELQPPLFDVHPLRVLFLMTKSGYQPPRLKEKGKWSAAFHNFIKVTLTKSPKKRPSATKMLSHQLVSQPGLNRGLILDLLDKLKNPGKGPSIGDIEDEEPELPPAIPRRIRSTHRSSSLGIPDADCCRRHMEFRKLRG
Type: biochemical
Method: A stock solution of 10 mM of test compound is prepared in DMSO. The compound plate was prepared by 3-fold and 9-point serial dilutions. […] The reaction is initiated by The addition of the Mg/ATP mix. After incubation for 40 minutes at RT, the reaction is stopped by the addition of phosphoric acid to a concentration of 0.5%.

Row | IC50 [nM] | SMILES
1 | 0.1 to 10 | CN(C)Cc1cc(-c2cc(-c3cc(F)c4c(c3)CCNC4=O)c(N)nc2F)ccc1N1CCOCC1 [I-486, 6-(2-amino-5-(3-((dimethylamino)methyl)-4-morpholinophenyl)-6-fluoropyridin-3-yl)-8-fluoro-3,4-dihydroisoquinolin-1(2H)-one]
2 | 0.1 to 10 | CN(C)Cc1cc(-c2cc(-c3ccc4c(c3)CCNC4=O)c(N)nc2F)ccc1N1CCSCC1 [I-487, 6-(2-amino-5-(3-((dimethylamino)methyl)-4-thiomorpholinophenyl)-6-fluoropyridin-3-yl)-3,4-dihydroisoquinolin-1(2H)-one]
3 | 0.1 to 10 | CN(C)Cc1cc(-c2cc(-c3cc4c(cc3F)C(=O)NCC4)c(N)nc2F)ccc1N1CCSCC1 [I-488, 6-(2-amino-5-(3-((dimethylamino)methyl)-4-thiomorpholinophenyl)-6-fluoropyridin-3-yl)-7-fluoro-3,4-dihydroisoquinolin-1(2H)-one]
4 | 11 to 100 | Nc1nc(F)c(-c2ccc(N3CCOCC3)c(CN3CCCC3)c2)cc1-c1cc2c(cc1F)C(=O)NCC2 [I-492, 6-(2-amino-6-fluoro-5-(4-morpholino-3-(pyrrolidin-1-ylmethyl)phenyl)pyridin-3-yl)-7-fluoro-3,4-dihydroisoquinolin-1(2H)-one]
5 | 11 to 100 | CN(C)Cc1cc(-c2cc(-c3ccc4c(c3)CCNC4=O)c(N)nc2F)ccc1N1CCS(=O)(=O)CC1 [I-493, 6-(2-amino-5-(3-((dimethylamino)methyl)-4-(1,1-dioxidothiomorpholino)phenyl)-6-fluoropyridin-3-yl)-3,4-dihydroisoquinolin-1(2H)-one]
6 | 11 to 100 | CN(C)Cc1cc(-c2cc(-c3cc4c(cc3F)C(=O)NCC4)c(N)nc2F)ccc1N1CCN(C2CC2)CC1 [I-494, 6-(2-amino-5-(4-(4-cyclopropylpiperazin-1-yl)-3-((dimethylamino)methyl)phenyl)-6-fluoropyridin-3-yl)-7-fluoro-3,4-dihydroisoquinolin-1(2H)-one]
7 | 11 to 100 | CN(C)Cc1cc(-c2cc(-c3ccc4c(c3)CCNC4=O)c(N)nc2F)ccc1N1CCN(C2CC2)CC1 [I-495, 6-(2-amino-5-(4-(4-cyclopropylpiperazin-1-yl)-3-((dimethylamino)methyl)phenyl)-6-fluoropyridin-3-yl)-3,4-dihydroisoquinolin-1(2H)-one]
8 | 11 to 100 | Nc1nc(F)c(-c2ccc(N3CCOCC3)c(CN3CCOCC3)c2)cc1-c1cc2c(cc1F)C(=O)NCC2 [I-497, 6-(2-amino-6-fluoro-5-(4-morpholino-3-(morpholinomethyl)phenyl)pyridin-3-yl)-7-fluoro-3,4-dihydroisoquinolin-1(2H)-one]
9 | 11 to 100 | CN(C)Cc1cc(-c2cc(-c3cc4c(cc3F)C(=O)NCC4)c(N)nc2F)ccc1N1CCS(=O)(=O)CC1 [I-498, 6-(2-amino-5-(3-((dimethylamino)methyl)-4-(1,1-dioxidothiomorpholino)phenyl)-6-fluoropyridin-3-yl)-7-fluoro-3,4-dihydroisoquinolin-1(2H)-one]
10 | 11 to 100 | CN(C)Cc1cc(-c2cc(-c3ccc4c(c3)CCNC4=O)c(N)nc2F)ccc1OCC1CC1 [I-506, 6-(2-amino-5-(4-(cyclopropylmethoxy)-3-((dimethylamino)methyl)phenyl)-6-fluoropyridin-3-yl)-3,4-dihydroisoquinolin-1(2H)-one]
11 | 11 to 100 | CN(C)Cc1cc(-c2cc(-c3cc4c(cc3F)C(=O)NCC4)c(N)nc2F)ccc1OCC1CC1 [I-507, 6-(2-amino-5-(4-(cyclopropylmethoxy)-3-((dimethylamino)methyl)phenyl)-6-fluoropyridin-3-yl)-7-fluoro-3,4-dihydroisoquinolin-1(2H)-one]
12 | 11 to 100 | COC1CCN(Cc2cc(-c3cc(-c4cc5c(cc4F)C(=O)NCC5)c(N)nc3F)ccc2OCC2CC2)CC1 [I-509, 6-(2-amino-5-(4-(cyclopropylmethoxy)-3-((4-methoxypiperidin-1-yl)methyl)phenyl)-6-fluoropyridin-3-yl)-7-fluoro-3,4-dihydroisoquinolin-1(2H)-one]
13 | 11 to 100 | COC1CCN(Cc2cc(-c3cc(-c4cc5c(cc4F)C(=O)NCC5)c(N)nc3F)ccc2N2CCOCC2)CC1 [I-511, 6-(2-amino-6-fluoro-5-(3-((4-methoxypiperidin-1-yl)methyl)-4-morpholinophenyl)pyridin-3-yl)-7-fluoro-3,4-dihydroisoquinolin-1(2H)-one]
14 | 11 to 100 | COC1CCN(Cc2cc(-c3cc(-c4cc5c(cc4F)C(=O)NCC5)c(N)nc3F)ccc2N2CCSCC2)CC1 [I-513, 6-(2-amino-6-fluoro-5-(3-((4-methoxypiperidin-1-yl)methyl)-4-thiomorpholinophenyl)pyridin-3-yl)-7-fluoro-3,4-dihydroisoquinolin-1(2H)-one]
15 | 101 to 1000 | Nc1nc(F)c(-c2ccc(C3=CCOCC3)cc2C=O)cc1-c1cc2c(cc1F)C(=O)NCC2 [I-514, 2-(6-amino-2-fluoro-5-(7-fluoro-1-oxo-1,2,3,4-tetrahydroisoquinolin-6-yl)pyridin-3-yl)-5-(3,6-dihydro-2H-pyran-4-yl)benzaldehyde]

Continued, molecule first:

Row | SMILES | IC50 [nM]
16 | CC(C)N1CCN(c2ccc(-c3cc(-c4cc(F)c5c(=O)[nH]cc(Cl)c5c4)c(N)nc3F)cc2)CC1 [I-489, 6-(2-amino-6-fluoro-5-(4-(4-isopropylpiperazin-1-yl)phenyl)pyridin-3-yl)-4-chloro-8-fluoroisoquinolin-1(2H)-one] | 0.1 to 10
17 | Cc1nc2cc(-c3cc(-c4ccc(C5CCOCC5)c(CN(C)C)c4)c(F)nc3N)cc(F)c2c(=O)[nH]1 [I-490, 7-(2-amino-5-(3-((dimethylamino)methyl)-4-(tetrahydro-2H-pyran-4-yl)phenyl)-6-fluoropyridin-3-yl)-5-fluoro-2-methylquinazolin-4(3H)-one] | 11 to 100
18 | Nc1nc(F)c(-c2ccc(N3CCOCC3)c(CN3CCCC3)c2)cc1-c1ccc2c(c1)CCNC2=O [I-491, 6-(2-amino-6-fluoro-5-(4-morpholino-3-(pyrrolidin-1-ylmethyl)phenyl)pyridin-3-yl)-3,4-dihydroisoquinolin-1(2H)-one] | 11 to 100
19 | Nc1nc(F)c(-c2ccc(N3CCOCC3)c(CN3CCOCC3)c2)cc1-c1ccc2c(c1)CCNC2=O [I-496, 6-(2-amino-6-fluoro-5-(4-morpholino-3-(morpholinomethyl)phenyl)pyridin-3-yl)-3,4-dihydroisoquinolin-1(2H)-one] | 11 to 100
20 | C[C@@H]1CN(c2ccc(-c3cc(-c4ccc5c(=O)[nH]cc(F)c5c4)c(N)nc3F)cc2)C[C@H](C)N1C [I-499, 6-(2-amino-6-fluoro-5-(4-((3R,5S)-3,4,5-trimethylpiperazin-1-yl)phenyl)pyridin-3-yl)-4-fluoroisoquinolin-1(2H)-one] | 0.1 to 10
21 | Cc1nc2cc(-c3cc(-c4ccc(N5C[C@@H](C)N(C)[C@@H](C)C5)cc4)c(F)nc3N)ccc2c(=O)[nH]1 [I-500, 7-(2-amino-6-fluoro-5-(4-((3R,5S)-3,4,5-trimethylpiperazin-1-yl)phenyl)pyridin-3-yl)-2-methylquinazolin-4(3H)-one] | 11 to 100
22 | Cc1nc2cc(-c3cc(-c4ccc(N5C[C@@H](C)N(C)[C@@H](C)C5)cc4)c(F)nc3N)cc(F)c2c(=O)[nH]1 [I-501, 7-(2-amino-6-fluoro-5-(4-((3R,5S)-3,4,5-trimethylpiperazin-1-yl)phenyl)pyridin-3-yl)-5-fluoro-2-methylquinazolin-4(3H)-one] | 11 to 100
23 | Cc1c[nH]c(=O)c2ccc(-c3cc(-c4ccc(N5CCOCC5)c(CN(C)C)c4)c(F)nc3N)cc12 [I-502, 6-(2-amino-5-(3-((dimethylamino)methyl)-4-morpholinophenyl)-6-fluoropyridin-3-yl)-4-methylisoquinolin-1(2H)-one] | 0.1 to 10
24 | Cc1cc2cc(-c3cc(-c4ccc(C5CCOCC5)c(CN(C)C)c4)c(F)nc3N)cc(F)c2c(=O)[nH]1 [I-504, 6-(2-amino-5-(3-((dimethylamino)methyl)-4-(tetrahydro-2H-pyran-4-yl)phenyl)-6-fluoropyridin-3-yl)-8-fluoro-3-methylisoquinolin-1(2H)-one] | 11 to 100
25 | Cc1cc2cc(-c3cc(-c4ccc(N5CCOCC5)c(CN(C)C)c4)c(F)nc3N)cc(F)c2c(=O)[nH]1 [I-505, 6-(2-amino-5-(3-((dimethylamino)methyl)-4-morpholinophenyl)-6-fluoropyridin-3-yl)-8-fluoro-3-methylisoquinolin-1(2H)-one] | 11 to 100
26 | COC1CCN(Cc2cc(-c3cc(-c4ccc5c(c4)CCNC5=O)c(N)nc3F)ccc2OCC2CC2)CC1 [I-508, 6-(2-amino-5-(4-(cyclopropylmethoxy)-3-((4-methoxypiperidin-1-yl)methyl)phenyl)-6-fluoropyridin-3-yl)-3,4-dihydroisoquinolin-1(2H)-one] | 11 to 100
27 | COC1CCN(Cc2cc(-c3cc(-c4ccc5c(c4)CCNC5=O)c(N)nc3F)ccc2N2CCOCC2)CC1 [I-510, 6-(2-amino-6-fluoro-5-(3-((4-methoxypiperidin-1-yl)methyl)-4-morpholinophenyl)pyridin-3-yl)-3,4-dihydroisoquinolin-1(2H)-one] | 11 to 100
28 | COC1CCN(Cc2cc(-c3cc(-c4ccc5c(c4)CCNC5=O)c(N)nc3F)ccc2N2CCSCC2)CC1 [I-512, 6-(2-amino-6-fluoro-5-(3-((4-methoxypiperidin-1-yl)methyl)-4-thiomorpholinophenyl)pyridin-3-yl)-3,4-dihydroisoquinolin-1(2H)-one] | 11 to 100
